# According to BigSolDB 2.1:
smiles,measurement,setting,value
Nc1ncnc2c1ncn2[C@@H]1O[C@H](CO)[C@@H](O)[C@H]1O,solubility (mole fraction),"in DMF, 278.15 K",0.00414
same,solubility (mole fraction),"in DMF, 283.15 K",0.00502
same,solubility (mole fraction),"in DMF, 288.15 K",0.00594
same,solubility (mole fraction),"in DMF, 293.15 K",0.00687
same,solubility (mole fraction),"in DMF, 298.15 K",0.00784
same,solubility (mole fraction),"in DMF, 303.15 K",0.00906
same,solubility (mole fraction),"in DMF, 308.15 K",0.00993
same,solubility (mole fraction),"in DMF, 313.15 K",0.0108
same,solubility (mole fraction),"in DMF, 318.15 K",0.012
same,solubility (mole fraction),"in DMF, 323.15 K",0.0127
same,solubility (mole fraction),"in DMSO, 293.15 K",0.00262
same,solubility (mole fraction),"in DMSO, 298.15 K",0.00299
same,solubility (mole fraction),"in DMSO, 303.15 K",0.00348
same,solubility (mole fraction),"in DMSO, 308.15 K",0.00394
same,solubility (mole fraction),"in DMSO, 313.15 K",0.00442
same,solubility (mole fraction),"in DMSO, 318.15 K",0.00488
same,solubility (mole fraction),"in DMSO, 323.15 K",0.00537
same,solubility (mole fraction),"in NMP, 278.15 K",0.0321
same,solubility (mole fraction),"in NMP, 283.15 K",0.035
same,solubility (mole fraction),"in NMP, 288.15 K",0.0376
same,solubility (mole fraction),"in NMP, 293.15 K",0.0407
same,solubility (mole fraction),"in NMP, 298.15 K",0.0437
same,solubility (mole fraction),"in NMP, 303.15 K",0.0467
same,solubility (mole fraction),"in NMP, 308.15 K",0.0496
same,solubility (mole fraction),"in NMP, 313.15 K",0.0522
same,solubility (mole fraction),"in NMP, 318.15 K",0.0554
same,solubility (mole fraction),"in NMP, 323.15 K",0.0582
same,solubility (mole fraction),"in propylene glycol, 278.15 K",0.00352
same,solubility (mole fraction),"in propylene glycol, 283.15 K",0.00375
same,solubility (mole fraction),"in propylene glycol, 288.15 K",0.004
same,solubility (mole fraction),"in propylene glycol, 293.15 K",0.00431
same,solubility (mole fraction),"in propylene glycol, 298.15 K",0.00464
same,solubility (mole fraction),"in propylene glycol, 303.15 K",0.00497
same,solubility (mole fraction),"in propylene glycol, 308.15 K",0.00537
same,solubility (mole fraction),"in propylene glycol, 313.15 K",0.0058
same,solubility (mole fraction),"in propylene glycol, 318.15 K",0.00623
same,solubility (mole fraction),"in propylene glycol, 323.15 K",0.00665
same,solubility (mole fraction),"in water, 278.15 K",0.00019
same,solubility (mole fraction),"in water, 283.15 K",0.000237
same,solubility (mole fraction),"in water, 288.15 K",0.00029
same,solubility (mole fraction),"in water, 293.15 K",0.000353
same,solubility (mole fraction),"in water, 298.15 K",0.000426
same,solubility (mole fraction),"in water, 303.15 K",0.000516
same,solubility (mole fraction),"in water, 308.15 K",0.000611
same,solubility (mole fraction),"in water, 313.15 K",0.000731
same,solubility (mole fraction),"in water, 318.15 K",0.000876
same,solubility (mole fraction),"in water, 323.15 K",0.00105
